Experimental data from patent US8680275B2, “Fused heterocyclic compounds as orexin receptor modulators” (Janssen Pharmaceutica NV, priority 2009, dated 2014).
Where two headings read alike, the source gives them in different places.

Columns and labels:
human orexin 1 receptor = human orexin 1 receptor (Homo sapiens (Human), UniProt O43613); experiment: Human orexin 1 receptor radioligand binding ([3H]-SB674042 competition); settings: read-out: OR-1 Ki
In short: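 CHO cells stably expressing human OX1R incubated 60 min at room temperature with [3H]-SB674042 and compounds (7 concentrations, 0.1 nM–10 μM; DMSO ≤0.1%) in PBS. Nonspecific binding defined with 10 μM of a reference urea antagonist; bound radioactivity measured by filtration and scintillation counting.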

human orexin-2 receptor = human orexin-2 receptor (Homo sapiens (Human), UniProt O43614); experiment: Human orexin 2 receptor radioligand binding ([3H]-EMPA competition); settings: read-out: OR-2 Ki
Chain of human orexin-2 receptor (O43614 whole entry): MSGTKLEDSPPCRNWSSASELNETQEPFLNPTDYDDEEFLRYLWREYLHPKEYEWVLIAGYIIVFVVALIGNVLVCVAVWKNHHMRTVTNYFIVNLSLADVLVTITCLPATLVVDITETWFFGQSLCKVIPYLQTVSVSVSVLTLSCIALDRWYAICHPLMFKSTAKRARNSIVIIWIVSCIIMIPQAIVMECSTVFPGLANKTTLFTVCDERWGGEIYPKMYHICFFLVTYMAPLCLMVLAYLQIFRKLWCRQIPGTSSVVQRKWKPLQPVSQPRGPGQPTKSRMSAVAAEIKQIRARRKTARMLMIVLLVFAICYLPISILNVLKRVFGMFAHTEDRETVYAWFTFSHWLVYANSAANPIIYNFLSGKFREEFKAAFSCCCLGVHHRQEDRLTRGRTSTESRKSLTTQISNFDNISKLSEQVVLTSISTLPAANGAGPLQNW
In short: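 Competition binding on HEK293 cells stably expressing human orexin-2 receptor, using 5 nM final [3H]-EMPA in PBS, compounds 0.1 nM to 10 μM (DMSO ≤0.1%). 60 min at room temperature, then filtration and scintillation counting; nonspecific binding defined with 10 μM of a reference antagonist.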

[1] = CHO cells stably expressing human orexin 1 receptor, [3H]-SB674042 4 nM final
[2] = HEK293 cells stably expressing human orexin-2 receptor, [3H]-EMPA 5 nM final

Chain of human orexin 1 receptor (O43613 whole entry): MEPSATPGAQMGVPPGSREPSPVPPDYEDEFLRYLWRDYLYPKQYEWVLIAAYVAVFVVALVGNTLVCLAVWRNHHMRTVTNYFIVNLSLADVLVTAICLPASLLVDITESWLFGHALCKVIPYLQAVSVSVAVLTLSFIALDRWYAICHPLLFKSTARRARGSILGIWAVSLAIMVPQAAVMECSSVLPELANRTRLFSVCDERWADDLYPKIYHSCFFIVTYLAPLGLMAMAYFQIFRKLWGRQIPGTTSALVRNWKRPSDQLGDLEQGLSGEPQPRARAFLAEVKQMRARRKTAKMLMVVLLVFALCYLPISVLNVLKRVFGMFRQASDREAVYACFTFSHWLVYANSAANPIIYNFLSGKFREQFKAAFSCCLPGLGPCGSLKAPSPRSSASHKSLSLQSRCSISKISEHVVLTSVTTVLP

| SMILES | Ki (human orexin 1 receptor; [1]) | Ki (human orexin-2 receptor; [2]) | Ki (human orexin 1 receptor) | Ki (human orexin-2 receptor) |
| --- | --- | --- | --- | --- |
| COc1ccc(Br)c(C(=O)N2CC[C@H]3CN(c4nc(C)cc(C)n4)[C@H]3C2)c1F [Example 154, (1R,6S)-3-[(6-Bromo-2-fluoro-3-methoxyphenyl)carbonyl]-8-(4,6-dimethylpyrimidin-2-yl)-3,8-diazabicyclo[4.2.0]octane] | 1.2 µM | 0.14 µM |  |  |
| CCOc1ccc2ccccc2c1C(=O)N1CC2CN(c3nc(C)cc(C)n3)C2C1 (centres unmarked) [Example 65, 6-(4,6-Dimethylpyrimidin-2-yl)-3-[(2-ethoxynaphthalen-1-yl)carbonyl]-3,6-diazabicyclo[3.2.0]heptane] | 1.07 µM | 0.042 µM |  |  |
| Cc1cnc(N2C[C@@H]3CCN(C(=O)c4cccc(F)c4-n4nccn4)C[C@@H]32)cn1 [Example 103, (1R,6S)-3-{[3-Fluoro-2-(2H-1,2,3-triazol-2-yl)phenyl]carbonyl}-8-(5-methylpyrazin-2-yl)-3,8-diazabicyclo[4.2.0]octane] |  | 0.36 µM | 10 µM |  |
| O=C(c1ccccc1-n1nccn1)N1CC[C@H]2CN(c3cnc4ccccc4n3)[C@H]2C1 [Example 39, (1R,6S)-(8-Quinoxalin-2-yl-3,8-diaza-bicyclo[4.2.0]oct-3-yl)-(2-[1,2,3]triazol-2-yl-phenyl)methanone] | 0.032 µM | 0.02 µM |  |  |
| Cc1cnc(N2C[C@@H]3CCN(C(=O)c4c(F)cccc4-n4nccn4)C[C@@H]32)cn1 [Example 101, (1R,6S)-3-{[2-Fluoro-6-(2H-1,2,3-triazol-2-yl)phenyl]carbonyl}-8-(5-methylpyrazin-2-yl)-3,8-diazabicyclo[4.2.0]octane] | 6.6 µM | 0.19 µM |  |  |
| COc1ccccc1C(=O)N1CC2CN(c3nccc(-c4ccccc4)n3)C2C1 (centres unmarked) [Example 53, 3-[(2-Methoxyphenyl)carbonyl]-6-(4-phenylpyrimidin-2-yl)-3,6-diazabicyclo[3.2.0]heptane] | 3.7 µM | 1.81 µM |  |  |
| O=C(c1ccccc1-n1nccn1)N1CC[C@H]2CN(c3nc4cc(Cl)ccc4o3)[C@H]2C1 [Example 119, 5-Chloro-2-[(1R,6S)-3-{[2-(2H-1,2,3-triazol-2-yl)phenyl]carbonyl}-3,8-diazabicyclo[4.2.0]oct-8-yl]-1,3-benzoxazole] | 0.032 µM | 0.017 µM |  |  |
| O=C(c1ccccc1-n1nccn1)N1CC2CN(c3nccc(-c4ccccc4)n3)C2C1 (centres unmarked) [Example 67, 6-(4-Phenylpyrimidin-2-yl)-3-{[2-(2H-1,2,3-triazol-2-yl)phenyl]carbonyl}-3,6-diazabicyclo[3.2.0]heptane] | 0.225 µM | 0.156 µM |  |  |
| O=C(c1cc(F)ccc1-n1nccn1)N1CC[C@H]2CN(c3cnc4ccccc4n3)[C@H]2C1 [Example 118, 2-[(1R,6S)-3-{[5-Fluoro-2-(2H-1,2,3-triazol-2-yl)phenyl]carbonyl}-3,8-diazabicyclo[4.2.0]oct-8-yl]quinoxaline] | 0.033 µM | 0.04 µM |  |  |
| O=C(c1ccccc1Br)N1CC[C@H]2CN(c3cnc4ccccc4n3)[C@H]2C1 [Example 13, (1R,6S)(2-Bromo-phenyl)-(8-quinoxalin-2-yl-3,8-diaza-bicyclo[4.2.0]oct-3-yl)-methanone] | 0.078 µM | 0.144 µM |  |  |
| Cc1cc(N2C[C@@H]3CCN(C(=O)c4ccccc4-n4nccn4)C[C@@H]32)nc(C(F)(F)F)n1 [Example 35, (1R,6S)-[8-(6-Methyl-2-trifluoromethyl-pyrimidin-4-yl)-3,8-diaza-bicyclo[4.2.0]oct-3-yl]-(2-[1,2,3]triazol-2-yl-phenyl)-methanone] | 0.117 µM | 0.024 µM |  |  |
| O=C(c1cc(F)ccc1-n1nccn1)N1CC[C@H]2CN(c3cc(NC4CC4)ncn3)[C@H]2C1 [Example 194, N-Cyclopropyl-6-[(1R,6S)-3-{[5-fluoro-2-(2H-1,2,3-triazol-2-yl)phenyl]carbonyl}-3,8-diazabicyclo[4.2.0]oct-8-yl]pyrimidin-4-amine] | 10 µM | 0.65 µM |  |  |
| Cc1cncc(N2C[C@@H]3CCN(C(=O)c4c(F)cccc4-n4nccn4)C[C@@H]32)n1 [Example 113, (1R,6S)-3-{[2-Fluoro-6-(2H-1,2,3-triazol-2-yl)phenyl]carbonyl}-8-(6-methylpyrazin-2-yl)-3,8-diazabicyclo[4.2.0]octane] | 9 µM | 0.161 µM |  |  |
| Cc1ccc(C)c(S(=O)(=O)N2CCC3CN(c4nccc(-c5ccccc5)n4)C3C2)c1 (centres unmarked) [Example 19, 3-(2,5-Dimethyl-benzenesulfonyl)-8-(4-phenyl-pyrimidin-2-yl)-3,8-diaza-bicyclo[4.2.0]octane] | 0.254 µM | 1.07 µM |  |  |
| O=C(c1cc(F)ccc1-n1nccn1)N1CC[C@H]2CN(c3nc4cc(Cl)ccc4o3)[C@H]2C1 [Example 121, 5-Chloro-2-[(1R,6S)-3-{[5-fluoro-2-(2H-1,2,3-triazol-2-yl)phenyl]carbonyl}-3,8-diazabicyclo[4.2.0]oct-8-yl]-1,3-benzoxazole] | 0.091 µM |  |  | 0.075 µM |
| CN(C)c1nc(N2C[C@@H]3CCN(C(=O)c4c(F)cccc4-n4nccn4)C[C@@H]32)cc(C(F)(F)F)n1 [Example 37, (1R,6S)-[8-(2-Dimethylamino-6-trifluoromethyl-pyrimidin-4-yl)-3,8-diaza-bicyclo[4.2.0]oct-3-yl]-(2-fluoro-6-[1,2,3]triazol-2-yl-phenyl)-methanone] | 0.019 µM | 0.01 µM |  |  |
| O=C(c1ccccc1-c1ccccc1)N1CCC2CN(c3nc4ccccc4o3)C2C1 (centres unmarked) [Example 11, (8-Benzooxazol-2-yl-3,8-diaza-bicyclo[4.2.0]oct-3-yl)-biphenyl-2-yl-methanone] | 0.143 µM | 0.14 µM |  |  |
| COc1ccc(-n2nccn2)c(C(=O)N2CC[C@H]3CN(c4cc(C)cc(C)n4)[C@H]3C2)c1 [Example 151, (1R,6S)-8-(4,6-Dimethylpyridin-2-yl)-3-{[5-methoxy-2-(2H-1,2,3-triazol-2-yl)phenyl]carbonyl}-3,8-diazabicyclo[4.2.0]octane] | 0.341 µM | 0.017 µM |  |  |
| Cc1cnc(N2C[C@@H]3CCN(C(=O)c4ccccc4-n4nccn4)C[C@@H]32)cn1 [Example 100, (1R,6S)-8-(5-Methylpyrazin-2-yl)-3-{[2-(2H-1,2,3-triazol-2-yl)phenyl]carbonyl}-3,8-diazabicyclo[4.2.0]octane] | 8.7 µM | 0.2 µM |  |  |
| Cc1cc(C)nc(N2C[C@@H]3CCN(C(=O)c4ccc(F)cc4-n4nccn4)C[C@@H]32)n1 [Example 30, (1R,6S)-[8-(4,6-Dimethyl-pyrimidin-2-yl)-3,8-diaza-bicyclo[4.2.0]oct-3-yl]-(4-fluoro-2-[1,2,3]triazol-2-yl-phenyl)-methanone] | 0.978 µM | 0.013 µM |  |  |
| Cc1nc(C(=O)N2CC3CN(c4cnc5ccccc5n4)C3C2)c(-c2ccccc2F)s1 (centres unmarked) [Example 51, 2-(3-{[5-(2-Fluorophenyl)-2-methyl-1,3-thiazol-4-yl]carbonyl}-3,6-diazabicyclo[3.2.0]hept-6-yl)quinoxaline] | 0.432 µM | 0.501 µM |  |  |
| COc1ccc(C(=O)N2CC[C@H]3CN(c4nc(C)cc(C)n4)[C@H]3C2)c(-n2nccn2)n1 [Example 162, (1R,6S)-8-(4,6-Dimethylpyrimidin-2-yl)-3-{[6-methoxy-2-(2H-1,2,3-triazol-2-yl)pyridin-3-yl]carbonyl}-3,8-diazabicyclo[4.2.0]octane] | 10 µM | 0.38 µM |  |  |
